One series relates to patients with T2D and RI. Type of series: in vivo, human. The settings on record: for Model-adjusted change from baseline A1C, LS mean (SE): ANCOVA. As for the experimental part:
Therapies for type 2 diabetes mellitus (T2DM) with renal impairment (RI) are limited and may require dose adjustment. This 52-week randomized, double blind, active controlled, Phase III parallel group study examined efficacy/safety of QW Albi injections (30 mg uptitrated to 50 mg if needed) vs daily Sita in patients with T2D and RI (eGFR≧15 and <90 mL/min/1.73 m^2) and A1C 7-10% on lifestyle (11% of subjects) or metformin (Met), thiazoldinedone (TZD), sulfonylureas (SU), or any combination (89% of patients). […] Primary endpoint was A1C change at week 26 for Albi vs Sita (noninferiority with subsequent superiority analysis). Eligible subjects were men or non pregnant, nonlactating women, 18 years of age or older, with a historical diagnosis of T2DM who were experiencing inadequate glycemic control on their current regimen of diet and exercise or their antidiabetic therapy of metformin, TZD, SU, or any combination of these OAD medications.

Series [1] deals with patients with type 2 diabetes. The following applies: head-to-head trial; cited from earlier work.
The conditions of series [2]: each group with CKD (mild, moderate, severe); cited from earlier work.
The mark [3] stands for this setting: Week 26, Moderate RI (eGFR 30-59).
Where [4] appears, read: Week 26, Severe RI (eGFR 15-29).

Read-outs that look alike come from different tables or passages of the source.

Consider `N[C@@H](CC(=O)N1CCn2c(nnc2C(F)(F)F)C1)Cc1cc(F)c(F)cc1F` [Sitagliptin, sitagliptin, reference compound], for which the “Week 26 A1C, mean” value with patients with T2D and RI (Any RI (eGFR 15-89)) came to 7.68%. In addition, the “Week 26 A1C, mean” value in the series on patients with T2D and RI (Mild RI (eGFR 60-89 mL/min/1.73 m2)) amounted to 7.50%. Besides, the “Week 26 A1C, mean” value in the series on patients with T2D and RI (Moderate RI (eGFR 30-59)) amounted to 7.91%. For the same compound, the “Week 26 A1C, mean” value in the series on patients with T2D and RI (Severe RI (eGFR 15-29)) is reported as 7.67%. In the series with patients with T2D and RI (Week 26), the “A1C<7% achieved, patients” value came to 30.5%; the FPG change was -3.9 mg/dL; the weight change is -0.2 kg. Besides, in the series with patients with T2D and RI (Week 26, Any RI (eGFR 15-89)), the “Model-adjusted change from baseline A1C, LS mean (SE)” value (“Model-adjusted change … (SE)” for short) is listed as −0.52% and the “Change from baseline A1C, mean (SD)” value is given as −0.54%. Moreover, in the series with patients with T2D and RI (Week 26, Mild RI (eGFR 60-89)), the “Model-adjusted change … (SE)” value was −0.67% and the “Change from baseline A1C, mean (SD)” value is reported as −0.66%. Besides, in the series on patients with T2D and RI (setting [3]), the “Model-adjusted change … (SE)” value was −0.31% and the “Change from baseline A1C, mean (SD)” value is listed as −0.37%. In the series with patients with T2D and RI (setting [4]), the “Model-adjusted change … (SE)” value was −0.61% and the “Change from baseline A1C, mean (SD)” value was −0.65%. Moreover, in the series on patients with T2D and RI (both, human, in vivo, 26 weeks), the “Adverse Event rate: diarrhea” value is 6.1%, the “Adverse Event rate: nausea” value is on record as 2.8%, the “Adverse Event rate: vomiting” value is given as 0.8% and the Hypoglycemia rate is given as 13.4%. Also, in the series with patients with T2D and RI (both, human, in vivo, 26 weeks), the “Hypoglycemia, severe (number)” value is 2; the “Injection site reaction rate” value worked out at 2.8%; the “On-therapy adverse event: Constipation” value was 5 (2.0) n (%); the “On-therapy adverse event: Diarrhea” value was 15 (6.1) n (%). In addition, in the series with patients with T2D and RI (both, human, in vivo, 26 weeks), the “On-therapy adverse event: Hypertension” value was 15 (6.1) n (%), the “On-therapy adverse event: Nasopharyngitis” value was 16 (6.5) n (%), the “On-therapy adverse event: Upper respiratory tract infection” value was 16 (6.5) n (%) and the “On-therapy adverse event: Urinary tract infection” value is on record as 15 (6.1) n (%).
On to `CCCCCCCCCCCCCCCC(=O)N[C@@H](CCC(=O)NCCCC[C@H](NC(=O)[C@H](C)NC(=O)[C@H](C)NC(=O)[C@H](CCC(N)=O)NC(=O)CNC(=O)[C@H](CCC(=O)O)NC(=O)[C@H](CC(C)C)NC(=O)[C@H](Cc1ccc(O)cc1)NC(=O)[C@H](CO)NC(=O)[C@H](CO)NC(=O)[C@@H](NC(=O)[C@H](CC(=O)O)NC(=O)[C@H](CO)NC(=O)[C@@H](NC(=O)[C@H](Cc1ccccc1)NC(=O)[C@@H](NC(=O)CNC(=O)[C@H](CCC(=O)O)NC(=O)[C@H](C)NC(=O)[C@@H](N)Cc1cnc[nH]1)[C@@H](C)O)[C@@H](C)O)C(C)C)C(=O)N[C@@H](CCC(=O)O)C(=O)N[C@@H](Cc1ccccc1)C(=O)N[C@H](C(=O)N[C@@H](C)C(=O)N[C@@H](Cc1c[nH]c2ccccc12)C(=O)N[C@@H](CC(C)C)C(=O)N[C@H](C(=O)N[C@@H](CCCNC(=N)N)C(=O)NCC(=O)N[C@@H](CCCNC(=N)N)C(=O)NCC(=O)O)C(C)C)[C@@H](C)CC)C(=O)O` [liraglutide, reference compound], for which, in series [1], the nausea, percentage is recorded as 29% and the vomiting, percentage is 9%. Moreover, in series [2], the “exposure vs group with normal renal function” value is “reduced exposure”.

Values taken from patent publication US20140378374A1, “METHODS OF TREATMENT” (GlaxoSmithKline Intellectual Property (No.2) Limited, priority 2013, published 2014).
